# In patent US8466162B2, “5-alkynyl-pyridines” (Boehringer Ingelheim International GmbH, priority 2011, dated 2013):
# Experiments:
# PI3Kalpha = target: T1, PI3Kalpha (Homo sapiens, UniProt P42336); experiment: Inhibition of PI3Kalpha-induced PIP-2 phosphorylation (filter-binding assay, 33P-ATP); format: biochemical; details: PI3 Kinase alpha (p85alpha/His-p110alpha), 1 μM ATP; read-out: IC50 PI3Kα
# T1 construct: His (N); made in house; host or cells: SF9 insect cells (baculovirus co-infection)
# T1 sequence (P27986 whole entry): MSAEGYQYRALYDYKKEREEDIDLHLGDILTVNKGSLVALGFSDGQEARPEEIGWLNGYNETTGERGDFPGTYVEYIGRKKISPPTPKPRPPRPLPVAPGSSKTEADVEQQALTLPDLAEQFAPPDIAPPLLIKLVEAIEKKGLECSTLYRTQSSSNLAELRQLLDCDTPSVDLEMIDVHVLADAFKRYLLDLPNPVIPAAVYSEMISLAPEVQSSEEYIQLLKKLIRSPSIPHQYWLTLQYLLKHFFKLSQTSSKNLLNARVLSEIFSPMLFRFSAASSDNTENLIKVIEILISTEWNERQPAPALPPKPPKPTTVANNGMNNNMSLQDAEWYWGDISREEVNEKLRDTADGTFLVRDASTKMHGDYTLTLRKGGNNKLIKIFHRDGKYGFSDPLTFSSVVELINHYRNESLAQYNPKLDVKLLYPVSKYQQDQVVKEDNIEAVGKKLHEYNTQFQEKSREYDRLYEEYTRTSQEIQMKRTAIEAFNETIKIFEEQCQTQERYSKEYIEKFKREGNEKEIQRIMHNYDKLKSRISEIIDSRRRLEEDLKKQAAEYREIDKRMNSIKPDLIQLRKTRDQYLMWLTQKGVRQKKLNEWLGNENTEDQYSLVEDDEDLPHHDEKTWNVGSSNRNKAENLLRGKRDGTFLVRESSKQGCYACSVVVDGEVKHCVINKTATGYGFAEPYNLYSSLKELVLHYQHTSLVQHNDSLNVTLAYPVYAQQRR
# T1 sequence (P42336 whole entry): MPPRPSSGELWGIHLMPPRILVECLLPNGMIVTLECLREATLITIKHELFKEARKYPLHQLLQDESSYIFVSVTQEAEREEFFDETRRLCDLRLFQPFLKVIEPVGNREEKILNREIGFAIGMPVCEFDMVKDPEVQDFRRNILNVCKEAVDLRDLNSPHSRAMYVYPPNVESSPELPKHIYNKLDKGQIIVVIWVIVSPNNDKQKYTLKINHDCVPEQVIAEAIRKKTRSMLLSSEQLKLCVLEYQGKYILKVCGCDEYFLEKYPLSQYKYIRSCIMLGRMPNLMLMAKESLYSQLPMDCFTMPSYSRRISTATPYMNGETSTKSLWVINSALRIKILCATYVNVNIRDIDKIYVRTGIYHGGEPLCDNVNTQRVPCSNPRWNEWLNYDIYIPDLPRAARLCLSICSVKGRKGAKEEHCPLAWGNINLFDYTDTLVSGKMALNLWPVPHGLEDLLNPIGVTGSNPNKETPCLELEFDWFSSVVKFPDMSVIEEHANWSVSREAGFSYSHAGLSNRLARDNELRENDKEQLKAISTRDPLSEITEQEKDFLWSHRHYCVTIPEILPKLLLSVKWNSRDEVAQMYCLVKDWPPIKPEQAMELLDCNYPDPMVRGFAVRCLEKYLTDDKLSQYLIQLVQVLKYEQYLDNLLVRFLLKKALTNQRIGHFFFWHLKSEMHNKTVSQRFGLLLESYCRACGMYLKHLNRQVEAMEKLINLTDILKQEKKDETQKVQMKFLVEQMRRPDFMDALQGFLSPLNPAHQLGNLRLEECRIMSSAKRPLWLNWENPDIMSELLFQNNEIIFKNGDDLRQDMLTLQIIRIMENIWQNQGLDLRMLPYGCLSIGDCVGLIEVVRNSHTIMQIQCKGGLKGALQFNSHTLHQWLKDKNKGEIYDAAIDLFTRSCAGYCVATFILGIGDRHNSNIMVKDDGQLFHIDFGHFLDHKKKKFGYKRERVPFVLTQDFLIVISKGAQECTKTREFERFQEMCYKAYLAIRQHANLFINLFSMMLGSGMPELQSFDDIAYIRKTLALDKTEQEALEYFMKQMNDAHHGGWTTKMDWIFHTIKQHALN
# H460 cells = experiment: alamarBlue H460 cell assay (antiproliferative/cytotoxicity); format: cell-based; details: NCI-H460; H460 human lung carcinoma cells
# Procedure, shortened: (§1)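 Cells treated 5–6 days at 37 °C with compound, 10 μM top final concentration, 1:3 steps over 10 dilutions, in duplicate. alamarBlue then added for 8 h; fluorescence read at ex 530–560/em 590 nm, medium blank subtracted, EC50 fitted.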
# MB453 cells = experiment: alamarBlue MB453 cell assay (antiproliferative/cytotoxicity); format: cell-based; details: Homo sapiens; MDA MB 453 breast cancer cell line
# Excerpt: (§2) The H460, MB453, U87, MCF7 and BT474 alamarBlue cell assays provide EC50 values indicative of the antiproliferative or cytotoxic effects of the compounds to respectively the H460 (human non small cell line cancer), MB-453 (breast cancer cell line), U87 (glioblastoma cell line), MCF7 (breast cancer cell line) and BT474 (breast cancer cell line). As known in the field, antiproliferative or cytotoxic effect against this cell lines would be expected to be indicative of activity in treating lung, breast and brain cancers. See R. Marone R et al. Biochim. Biophys. Acta. 2008 January; 1784(1):159-85. S. Yaguchi et al., J. Natl. Cancer Inst. 2006 Apr. 19; 98(8):545-56.
# (§3) Method Type: Antiproliferative/Cytotoxicity
# (§4) alamarBlue® is designed to provide a rapid and sensitive measure of cell proliferation and cytotoxicity in various human and animal cell lines. The assay is based on the reduction of alamarBlue in the reducing environment of living (metabolically active) cells. In the presence of added cytotoxic or antiproliferative compounds, the innate metabolic activity ceases.
# (§5) AlamarBlue is soluble and stable in culture medium. Measurements are made fluorometrically by exciting at 530-560 nm and measuring emission at 590 nm. In reporting percent alamarBlue reduction by monitoring fluorescence, data are expressed as fluorescence emission intensity units as a function of time of incubation.
# (§6) 3. Equipment • 96-well plates, flat bottom (Falcon, Cat. No.: 353072) • 96-well plates, U-shaped (Costar, Cat. No.: 3799) • CO2-Incubator • Microplate Reader, Spectramax Plus, Molecular Devices 4. Typical Procedure • Day 0: Seed 3000 BT-474 cells (IMDM/5% FCS, 1% NEAA, 1% Sodiumpyruvat) in 150 μl medium into a 96-well plate, flat bottom (include mediumblank). Incubate plates at 37° C. in a CO2 incubator overnight. • Day 1: Dilute compounds to a concentration 40 μM ->1:3 in medium, 10 dilution steps, in 96-well plates. • Add 50 μl per well of each dilution (total volume per well 200 μl; final conc. of cpds: 10 μM ->1:3). If required, test further dilutions. • All concentrations are tested in duplicates. • Controls: Cells w/o cpd. (+50 μl medium/DMSO). • Cells are incubated with compounds for 5-6 days. • Day 6 or 7: Add 25 μl of alamarBlue solution to each well and incubate for 8 hours at 37° C. Measure fluorescence by exciting at 530-560 nm and measuring emission at 590 nm 5. Evaluation • Subtract average value for medium blank from sample readings • Calculate EC50 using GraphPad Prism (Fifty)
# U87 cells = experiment: alamarBlue U87 cell assay (antiproliferative/cytotoxicity); format: cell-based; details: U-87MG human glioblastoma cells
# Excerpt: as §2, §3, §4, §5, §6
# MCF7 cells = experiment: alamarBlue MCF7 cell assay (antiproliferative/cytotoxicity); format: cell-based; details: MCF7 human breast cancer cell line
# Procedure, shortened: as §1
# BT474 cells = experiment: alamarBlue BT474 cell assay (antiproliferative/cytotoxicity); format: cell-based; details: BT-474 human breast cancer cell line, 5-6 days incubation
# Procedure, shortened: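 After overnight plating of 3000 cells per well, compounds are applied as ten threefold dilutions (highest final 10 μM) in duplicate for 5-6 days. Viability is then gauged by an 8 h alamarBlue incubation and fluorescence readout, with EC50 calculated from medium-blank-corrected signals.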
smiles,measurement,setting,value
"CCc1cc(-c2ncnc(CC)c2C#Cc2cnc(C)c(NS(C)(=O)=O)c2)ccn1 [Example 5, N-{5-[4-Ethyl-6-(2-ethyl-pyridin-4-yl)-pyrimidin-5-ylethynyl]-2-methyl-pyridin-3-yl}-methanesulfonamide]",IC50,PI3Kalpha,0.63 nM
same,EC50,H460 cells,159 nM
same,EC50,MB453 cells,54 nM
same,EC50,U87 cells,220 nM
same,EC50,MCF7 cells,34 nM
same,EC50,BT474 cells,117 nM
"CCc1ncnc(-c2cc(C)nc(C)c2)c1C#Cc1cnc(C)c(NS(C)(=O)=O)c1 [Example 6, N-{5-[4-(2,6-Dimethyl-pyridin-4-yl)-6-ethyl-pyrimidin-5-ylethynyl]-2-methyl-pyridin-3-yl}-methanesulfonamide]",IC50,PI3Kalpha,1 nM
same,EC50,H460 cells,169 nM
same,EC50,MB453 cells,49 nM
same,EC50,U87 cells,243 nM
same,EC50,MCF7 cells,28 nM
same,EC50,BT474 cells,104 nM
"CCc1ncnc(-c2cccc(C(F)(F)F)c2OC)c1C#Cc1cnc(C)c(NS(C)(=O)=O)c1 [Example 7, N-{5-[4-Ethyl-6-(2-methoxy-3-trifluoromethyl-phenyl)-pyrimidin-5-ylethynyl]-2-methyl-pyridin-3-yl}-methanesulfonamide]",IC50,PI3Kalpha,2 nM
same,EC50,H460 cells,358 nM
same,EC50,MB453 cells,381 nM
same,EC50,U87 cells,475 nM
same,EC50,MCF7 cells,223 nM
same,EC50,BT474 cells,543 nM
"CCc1ncnc(-c2ccc(OC)c(F)c2)c1C#Cc1cnc(C)c(NS(C)(=O)=O)c1 [Example 8, N-{5-[4-Ethyl-6-(3-fluoro-4-methoxy-phenyl)-pyrimidin-5-ylethynyl]-2-methyl-pyridin-3-yl}-methanesulfonamide]",IC50,PI3Kalpha,1 nM
same,EC50,H460 cells,241 nM
same,EC50,MB453 cells,184 nM
same,EC50,U87 cells,910 nM
same,EC50,MCF7 cells,99 nM
same,EC50,BT474 cells,279 nM
"CCc1ncnc(-c2ccc(C)nc2)c1C#Cc1cnc(C)c(NS(=O)(=O)c2ccc(F)cc2F)c1 [Example 9, N-{5-[4-Ethyl-6-(6-methyl-pyridin-3-yl)-pyrimidin-5-ylethynyl]-2-methyl-pyridin-3-yl}-2,4-difluoro-benzenesulfonamide]",IC50,PI3Kalpha,0.54 nM
same,EC50,H460 cells,49 nM
same,EC50,MB453 cells,36 nM
same,EC50,U87 cells,248 nM
same,EC50,MCF7 cells,7 nM
same,EC50,BT474 cells,24 nM
"CCc1ncnc(-c2ccnc(C)c2)c1C#Cc1cnc(C)c(NS(=O)(=O)c2ccc(F)cc2F)c1 [Example 10, N-{5-[4-Ethyl-6-(2-methyl-pyridin-4-yl)-pyrimidin-5-ylethynyl]-2-methyl-pyridin-3-yl}-2,4-difluoro-benzenesulfonamide]",IC50,PI3Kalpha,0.56 nM
same,EC50,H460 cells,92 nM
same,EC50,MB453 cells,69 nM
same,EC50,U87 cells,326 nM
same,EC50,MCF7 cells,29 nM
same,EC50,BT474 cells,75 nM
"CCOc1ccc(-c2ncnc(CC)c2C#Cc2cnc(C)c(NS(C)(=O)=O)c2)cc1OCC [Example 23, N-{5-[4-(3,4-Diethoxy-phenyl)-6-ethyl-pyrimidin-5-ylethynyl]-2-methyl-pyridin-3-yl}-methanesulfonamide]",IC50,PI3Kalpha,0.58 nM
same,EC50,H460 cells,109 nM
same,EC50,MB453 cells,123 nM
same,EC50,U87 cells,470 nM
same,EC50,MCF7 cells,45 nM
same,EC50,BT474 cells,119 nM
"CCc1ncnc(-c2ccc(C(=O)N3CCN(C)CC3)c(F)c2)c1C#Cc1cnc(C)c(NS(=O)(=O)c2ccc(F)cc2F)c1 [Example 27, N-(5-{4-Ethyl-6-[3-fluoro-4-(4-methyl-piperazine-1-carbonyl)-phenyl]-pyrimidin-5-ylethynyl}-2-methyl-pyridin-3-yl)-2,4-difluoro-benzenesulfonamide]",IC50,PI3Kalpha,0.5 nM
same,EC50,H460 cells,192 nM
same,EC50,MB453 cells,33 nM
same,EC50,U87 cells,75 nM
same,EC50,MCF7 cells,11 nM
same,EC50,BT474 cells,51 nM
"CCc1nc(N)nc(-c2ccc(C(=O)N3CCN(C)CC3)c(F)c2)c1C#Cc1cnc(C)c(NS(=O)(=O)c2ccc(F)cc2F)c1 [Example 32, N-(5-{2-Amino-4-ethyl-6-[3-fluoro-4-(4-methyl-piperazine-1-carbonyl)-phenyl]-pyrimidin-5-ylethynyl}-2-methyl-pyridin-3-yl)-2,4-difluoro-benzenesulfonamide]",IC50,PI3Kalpha,0.28 nM
same,EC50,H460 cells,500 nM
same,EC50,MB453 cells,49 nM
same,EC50,U87 cells,259 nM
same,EC50,MCF7 cells,23 nM
same,EC50,BT474 cells,127 nM
"CCc1nc(N)nc(-c2ccnc(C)c2)c1C#Cc1cnc(C)c(NS(=O)(=O)c2ccc(F)cc2F)c1 [Example 33, N-{5-[2-Amino-4-ethyl-6-(2-methyl-pyridin-4-yl)-pyrimidin-5-ylethynyl]-2-methyl-pyridin-3-yl}-2,4-difluoro-benzenesulfonamide]",IC50,PI3Kalpha,0.45 nM
same,EC50,H460 cells,70 nM
same,EC50,MB453 cells,45 nM
same,EC50,U87 cells,224 nM
same,EC50,MCF7 cells,9 nM
same,EC50,BT474 cells,33 nM
"CCc1nc(N)nc(-c2ccc(C)nc2)c1C#Cc1cnc(C)c(NS(=O)(=O)c2ccc(F)cc2F)c1 [Example 36, N-{5-[2-Amino-4-ethyl-6-(6-methyl-pyridin-3-yl)-pyrimidin-5-ylethynyl]-2-methyl-pyridin-3-yl}-2,4-difluoro-benzenesulfonamide]",IC50,PI3Kalpha,0.56 nM
same,EC50,H460 cells,30 nM
same,EC50,MB453 cells,37 nM
same,EC50,U87 cells,127 nM
same,EC50,MCF7 cells,10 nM
same,EC50,BT474 cells,41 nM
"Cc1ncc(C#Cc2c(C)ncnc2-c2ccc(C(=O)N3CCN(C)CC3)c(F)c2)cc1NS(C)(=O)=O [Example 37, N-(5-{4-[3-Fluoro-4-(4-methyl-piperazine-1-carbonyl)-phenyl]-6-methyl-pyrimidin-5-ylethynyl}-2-methyl-pyridin-3-yl)-methanesulfonamide]",IC50,PI3Kalpha,5 nM
same,EC50,H460 cells,25000 nM
same,EC50,MB453 cells,685 nM
same,EC50,U87 cells,3040 nM
same,EC50,MCF7 cells,4000 nM
same,EC50,BT474 cells,1020 nM
"Cc1cc(-c2ncnc(C)c2C#Cc2cnc(C)c(NS(C)(=O)=O)c2)ccn1 [Example 38, N-{2-Methyl-5-[4-methyl-6-(2-methyl-pyridin-4-yl)-pyrimidin-5-ylethynyl]-pyridin-3-yl}-methanesulfonamide]",IC50,PI3Kalpha,2 nM
same,EC50,H460 cells,2600 nM
same,EC50,MB453 cells,317 nM
same,EC50,U87 cells,893 nM
same,EC50,MCF7 cells,186 nM
same,EC50,BT474 cells,344 nM
"Cc1ncc(C#Cc2c(C)ncnc2-c2cccc(C#N)c2)cc1NS(C)(=O)=O [Example 39, N-{5-[4-(3-Cyano-phenyl)-6-methyl-pyrimidin-5-ylethynyl]-2-methyl-pyridin-3-yl}-methanesulfonamide]",IC50,PI3Kalpha,4 nM
same,EC50,H460 cells,1550 nM
same,EC50,MB453 cells,524 nM
same,EC50,U87 cells,955 nM
same,EC50,MCF7 cells,213 nM
same,EC50,BT474 cells,837 nM
"Cc1ccc(-c2ncnc(C)c2C#Cc2cnc(C)c(NS(C)(=O)=O)c2)cn1 [Example 40, N-{2-Methyl-5-[4-methyl-6-(6-methyl-pyridin-3-yl)-pyrimidin-5-ylethynyl]-pyridin-3-yl}-methanesulfonamide]",IC50,PI3Kalpha,3 nM
same,EC50,H460 cells,1960 nM
same,EC50,MB453 cells,411 nM
same,EC50,U87 cells,1170 nM
same,EC50,MCF7 cells,188 nM
same,EC50,BT474 cells,597 nM
"Cc1ncc(C#Cc2c(C)ncnc2-c2cccc(CN(C)C)c2)cc1NS(C)(=O)=O [Example 41, N-{5-[4-(3-Dimethylaminomethyl-phenyl)-6-methyl-pyrimidin-5-ylethynyl]-2-methyl-pyridin-3-yl}-methanesulfonamide]",IC50,PI3Kalpha,9 nM
same,EC50,H460 cells,2750 nM
same,EC50,MB453 cells,1160 nM
same,EC50,U87 cells,25000 nM
same,EC50,MCF7 cells,1860 nM
same,EC50,BT474 cells,1280 nM
"Cc1ncc(C#Cc2c(C)ncnc2-c2ccccc2)cc1NS(C)(=O)=O [Example 42, N-[2-Methyl-5-(4-methyl-6-phenyl-pyrimidin-5-ylethynyl)-pyridin-3-yl]-methanesulfonamide]",IC50,PI3Kalpha,4 nM
same,EC50,H460 cells,2260 nM
same,EC50,MB453 cells,1330 nM
same,EC50,U87 cells,1810 nM
same,EC50,MCF7 cells,239 nM
same,EC50,BT474 cells,1130 nM
"Cc1cc(C)cc(-c2ncnc(C)c2C#Cc2cnc(C)c(NS(C)(=O)=O)c2)c1 [Example 43, N-{5-[4-(3,5-Dimethyl-phenyl)-6-methyl-pyrimidin-5-ylethynyl]-2-methyl-pyridin-3-yl}-elmethanesulfonamide]",IC50,PI3Kalpha,3 nM
same,EC50,H460 cells,337 nM
same,EC50,MB453 cells,639 nM
same,EC50,U87 cells,900 nM
same,EC50,MCF7 cells,270 nM
same,EC50,BT474 cells,897 nM
